Laboratory results taken from publication PMC12090182, “Repurposing of the RIPK1-Selective Benzo[1,4]oxazepin-4-one Scaffold for the Development of a Type III LIMK1/2 Inhibitor” (ACS Chemical Biology, 2025).
Read-outs that look alike come from different tables or passages of the source.

Tested on: HEK293T cells
Assay type: cell-based
Experimental: To assess the influence on cell health, a high-content screening in living cells called the multiplex high-content assay, as described previously by Tjaden et al., was performed.[38] In brief, HEK293T (ATCC CRL-1573) and U2OS (ATCCHTB-96) were cultured in DMEM plus L-glutamine (high glucose) supplemented by 10% FBS (Gibco) and penicillin/streptomycin (Gibco). MRC-9 fibroblasts ([…]) were cultured in EMEM plus L-glutamine supplemented by 10% FBS (Gibco) and penicillin/streptomycin (Gibco). Cells were seeded at a density of 1250 cells per well in a 384-well plate in a culture medium (cell culture microplate, PS, f-bottom, μClear, 781091, Greiner), with a volume of 50 μL per well. All outer wells were filled with 100 μL of PBS buffer (Gibco). […] The cell shape and fluorescence were measured before treatment and 12, 24, and 48 h after compound treatment using the CQ1 high-content confocal microscope (Yokogawa, Musashino, Japan). […] The compounds were tested at 1 and 10 μM, respectively. Acquired images of the cells were processed using Yokogawa CellPathfinder software (v3.04.02.02). […] Results were normalized to cells exposed to 0.1% DMSO. All compounds were tested in biological duplicates, and SEM (standard error of mean) was calculated of biological duplicates.

[1] = 1 µM, 0 h, HEK293T, replicate 2
[2] = 1 µM, 12 h, HEK293T, replicate 2
[3] = 1 µM, 24 h, HEK293T, replicate 2
[4] = 1 µM, 48 h, HEK293T, replicate 1
[5] = 1 µM, 48 h, HEK293T, replicate 2
[6] = 10 µM, 0 h, HEK293T, replicate 2
[7] = 10 µM, 12 h, HEK293T, replicate 2
[8] = 10 µM, 24 h, HEK293T, replicate 2
[9] = 10 µM, 48 h, HEK293T, replicate 2
[10] = HEK293T, 1 µM, 0 h after treatment
[11] = HEK293T, 1 µM, 12 h after treatment
[12] = HEK293T, 1 µM, 24 h after treatment
[13] = HEK293T, 10 µM, 0 h after treatment
[14] = HEK293T, 10 µM, 12 h after treatment
[15] = HEK293T, 10 µM, 24 h after treatment
[16] = HEK293T, 10 µM, 48 h after treatment

CN1C(=O)[C@@H](N2CCc3c(nn(Cc4ccccc4)c3C(N)=O)C2=O)COc2cc(Cl)ccc21 [Compound 10, (S)-2-benzyl-6-(8-chloro-5-methyl-4-oxo-2,3,4,5-tetrahydrobenzo[b][1,4]oxazepin-3-yl)-7-oxo-4,5,6,7-tetrahydro-2H-pyrazolo[3,4-c]pyridine-3-carboxamide]
Cell count normalized to cells treated with DMSO control [1]: 0.9791 | Cell count per well [1]: 224 | Population Fragmented Nuclei (%) [1]: 4.50% | Population Healthy Nuclei (%) [1]: 67.00% | Population Pyknosed Nuclei (%) [1]: 28.50% | Population apoptotic cell (%) [1]: 66.67% | Population cell that influence microtubule strucutre (%) [1]: 23.88% | Population with increased mitochondrial mass (%) [1]: 83.58% | Population with membrane disruption (%) [1]: 0.00% | Cell count normalized to cells treated with DMSO control [2]: 1.07 | Cell count per well [2]: 375 | Population Fragmented Nuclei (%) [2]: 6.44% | Population Healthy Nuclei (%) [2]: 80.67% | Population Pyknosed Nuclei (%) [2]: 12.89% | Population apoptotic cell (%) [2]: 23.91% | Population cell that influence microtubule strucutre (%) [2]: 20.49% | Population with increased mitochondrial mass (%) [2]: 45.83% | Population with membrane disruption (%) [2]: 0.69% | Cell count normalized to cells treated with DMSO control [3]: 1.152 | Cell count per well [3]: 520 | Population Fragmented Nuclei (%) [3]: 9.33% | Population Healthy Nuclei (%) [3]: 82.94% | Population Pyknosed Nuclei (%) [3]: 7.74% | Population apoptotic cell (%) [3]: 43.59% | Population cell that influence microtubule strucutre (%) [3]: 13.64% | Population with increased mitochondrial mass (%) [3]: 27.75% | Population with membrane disruption (%) [3]: 0.24% | Cell count normalized to cells treated with DMSO control [4]: 1.025 | Cell count per well [4]: 1037 | Population Fragmented Nuclei (%) [4]: 16.00% | Population Healthy Nuclei (%) [4]: 79.80% | Population Pyknosed Nuclei (%) [4]: 4.20% | Population apoptotic cell (%) [4]: 6.98% | Population cell that influence microtubule strucutre (%) [4]: 10.88% | Population with increased mitochondrial mass (%) [4]: 12.47% | Population with membrane disruption (%) [4]: 2.32% | Cell count normalized to cells treated with DMSO control [5]: 1.189 | Cell count per well [5]: 812 | Population Fragmented Nuclei (%) [5]: 18.11% | Population Healthy Nuclei (%) [5]: 75.56% | Population Pyknosed Nuclei (%) [5]: 6.33% | Population apoptotic cell (%) [5]: 17.65% | Population cell that influence microtubule strucutre (%) [5]: 11.82% | Population with increased mitochondrial mass (%) [5]: 11.00% | Population with membrane disruption (%) [5]: 1.97% | cytotoxicity (1 μM, HEK293T): no cytotoxicity | Cell count normalized to cells treated with DMSO control [6]: 0.8086 | Cell count per well [6]: 185 | Population Fragmented Nuclei (%) [6]: 2.99% | Population Healthy Nuclei (%) [6]: 66.47% | Population Pyknosed Nuclei (%) [6]: 30.54% | Population apoptotic cell (%) [6]: 64.71% | Population cell that influence microtubule strucutre (%) [6]: 27.03% | Population with increased mitochondrial mass (%) [6]: 85.59% | Population with membrane disruption (%) [6]: 0.00% | Cell count normalized to cells treated with DMSO control [7]: 0.8449 | Cell count per well [7]: 296 | Population Fragmented Nuclei (%) [7]: 7.69% | Population Healthy Nuclei (%) [7]: 76.54% | Population Pyknosed Nuclei (%) [7]: 15.77% | Population apoptotic cell (%) [7]: 63.41% | Population cell that influence microtubule strucutre (%) [7]: 38.69% | Population with increased mitochondrial mass (%) [7]: 77.89% | Population with membrane disruption (%) [7]: 0.00% | Cell count normalized to cells treated with DMSO control [8]: 0.8682 | Cell count per well [8]: 392 | Population Fragmented Nuclei (%) [8]: 11.70% | Population Healthy Nuclei (%) [8]: 77.99% | Population Pyknosed Nuclei (%) [8]: 10.31% | Population apoptotic cell (%) [8]: 56.76% | Population cell that influence microtubule strucutre (%) [8]: 28.21% | Population with increased mitochondrial mass (%) [8]: 65.71% | Population with membrane disruption (%) [8]: 0.00% | Cell count normalized to cells treated with DMSO control [9]: 0.7573 | Cell count per well [9]: 517 | Population Fragmented Nuclei (%) [9]: 16.37% | Population Healthy Nuclei (%) [9]: 77.05% | Population Pyknosed Nuclei (%) [9]: 6.59% | Population apoptotic cell (%) [9]: 39.39% | Population cell that influence microtubule strucutre (%) [9]: 19.17% | Population with increased mitochondrial mass (%) [9]: 40.93% | Population with membrane disruption (%) [9]: 0.00% | toxicity (10 μM, within the 48 h time frame, b30 names HEK293T (apoptotic cell population)): slight increase in toxicity | impact on tubulin, mitochondrial mass, and cellular permeability in healthy cells (HEK293T, 1 μM (Figure 6)): comparable to that of the 0.1% DMSO control | Cell count normalized to cells treated with DMSO control [10]: 1.066 | Cell count per well [10]: 318 | Population Fragmented Nuclei (%) [10]: 7.28% | Population Healthy Nuclei (%) [10]: 48.28% | Population Pyknosed Nuclei (%) [10]: 44.44% | Population apoptotic cell (%) [10]: 40.52% | Population cell that influence microtubule strucutre (%) [10]: 21.43% | Population with increased mitochondrial mass (%) [10]: 63.49% | Population with membrane disruption (%) [10]: 0.00% | Cell count normalized to cells treated with DMSO control [11]: 1.032 | Cell count per well [11]: 470 | Population Fragmented Nuclei (%) [11]: 6.59% | Population Healthy Nuclei (%) [11]: 81.41% | Population Pyknosed Nuclei (%) [11]: 12.00% | Population apoptotic cell (%) [11]: 25.49% | Population cell that influence microtubule strucutre (%) [11]: 28.03% | Population with increased mitochondrial mass (%) [11]: 37.86% | Population with membrane disruption (%) [11]: 0.58% | Cell count normalized to cells treated with DMSO control [12]: 1.043 | Cell count per well [12]: 633 | Population Fragmented Nuclei (%) [12]: 13.01% | Population Healthy Nuclei (%) [12]: 77.59% | Population Pyknosed Nuclei (%) [12]: 9.39% | Population apoptotic cell (%) [12]: 29.82% | Population cell that influence microtubule strucutre (%) [12]: 18.05% | Population with increased mitochondrial mass (%) [12]: 21.02% | Population with membrane disruption (%) [12]: 0.85% | Cell count normalized to cells treated with DMSO control [13]: 0.8779 | Cell count per well [13]: 262 | Population Fragmented Nuclei (%) [13]: 12.05% | Population Healthy Nuclei (%) [13]: 39.73% | Population Pyknosed Nuclei (%) [13]: 48.21% | Population apoptotic cell (%) [13]: 50.00% | Population cell that influence microtubule strucutre (%) [13]: 14.61% | Population with increased mitochondrial mass (%) [13]: 59.55% | Population with membrane disruption (%) [13]: 0.00% | Cell count normalized to cells treated with DMSO control [14]: 0.8806 | Cell count per well [14]: 401 | Population Fragmented Nuclei (%) [14]: 9.68% | Population Healthy Nuclei (%) [14]: 77.15% | Population Pyknosed Nuclei (%) [14]: 13.17% | Population apoptotic cell (%) [14]: 46.94% | Population cell that influence microtubule strucutre (%) [14]: 42.51% | Population with increased mitochondrial mass (%) [14]: 57.84% | Population with membrane disruption (%) [14]: 0.00% | Cell count normalized to cells treated with DMSO control [15]: 0.8057 | Cell count per well [15]: 489 | Population Fragmented Nuclei (%) [15]: 10.83% | Population Healthy Nuclei (%) [15]: 78.34% | Population Pyknosed Nuclei (%) [15]: 10.83% | Population apoptotic cell (%) [15]: 43.14% | Population cell that influence microtubule strucutre (%) [15]: 28.46% | Population with increased mitochondrial mass (%) [15]: 48.51% | Population with membrane disruption (%) [15]: 0.27% | Cell count normalized to cells treated with DMSO control [16]: 0.8197 | Cell count per well [16]: 829 | Population Fragmented Nuclei (%) [16]: 23.14% | Population Healthy Nuclei (%) [16]: 71.74% | Population Pyknosed Nuclei (%) [16]: 5.12% | Population apoptotic cell (%) [16]: 33.33% | Population cell that influence microtubule strucutre (%) [16]: 14.26% | Population with increased mitochondrial mass (%) [16]: 26.32% | Population with membrane disruption (%) [16]: 0.51%
